Consider one compound from patent US20010011084A1, “USE OF ESTROGEN TO MODIFY THE AMOUNT OF SEROTONIN TRANSPORTER OR ITS MRNA” (priority 1996, published 2001).

SMILES strings stand for the structures.

For series [1] the following is noted: 10 μg EB s.c., for up to 30 h in ovariectomized rats; cited from earlier work.
Another series has as its system uterine horns. As to the kind of experiment: Examination of the uterine horns. It is filed as in vivo, rat. Conditions: OVX rats, 10 μg s.c., next day.
For a further series, the system named is luteinizing hormone (LH). As to the kind of experiment: Plasma r-LH in trunk blood by radioimmunoassay. It is filed as in vivo, rat. Conditions: presumptive proestrus, OVX rats, 10 μg s.c., mean±sem, n=7.

As to `C[C@]12CC[C@@H]3c4ccc(OC(=O)c5ccccc5)cc4CC[C@H]3[C@@H]1CC[C@@H]2O` [EB, estradiol benzoate], the “blood levels of E2” value in series [1] is given as 100-120 pg E2/ml. Moreover, the uterine horns entry in the series on uterine horns is reported as “markedly distended with fluid”. Besides, the “Plasma r-LH levels” value with luteinizing hormone (LH) came out at 7.5 ± 3.1 ng/mL.
